This passage reports inhibition and IC50 results from US10752596B2, “Nitrogen-containing heteroaryl compound and pharmaceutical use thereof” (JAPAN TOBACCO INC., priority 2017, dated 2020).

SMILES strings stand for the structures.

In one experiment the target is human GLUT9 (Homo sapiens (Human), UniProt Q9NRM0). The experiment is described as follows: Evaluation of human GLUT9 inhibitory activity ([14C] uric acid uptake in human GLUT9 expressing HEK293T cells transduced with Uricase/Hyper). The settings on record: HEK-293T, 10 μM compound, human GLUT9 stably expressing HEK293T cells, read-out: GLUT9 inhibitory rate at 10 μM of compound. It is filed as cell-based. Here is the method: A method for measuring GLUT9 inhibitory activity using human GLUT9 expressing cells transduced with Uricase/Hyper is shown hereinafter. GLUT9 inhibitory activity ([…]) of the test compound was calculated based on the intracellular uptake amount of labeled uric acid ([^14C] uric acid) transported by GLUT9.
Sequence of human GLUT9 (Q9NRM0 other isoform, or with tags, fused parts or gaps): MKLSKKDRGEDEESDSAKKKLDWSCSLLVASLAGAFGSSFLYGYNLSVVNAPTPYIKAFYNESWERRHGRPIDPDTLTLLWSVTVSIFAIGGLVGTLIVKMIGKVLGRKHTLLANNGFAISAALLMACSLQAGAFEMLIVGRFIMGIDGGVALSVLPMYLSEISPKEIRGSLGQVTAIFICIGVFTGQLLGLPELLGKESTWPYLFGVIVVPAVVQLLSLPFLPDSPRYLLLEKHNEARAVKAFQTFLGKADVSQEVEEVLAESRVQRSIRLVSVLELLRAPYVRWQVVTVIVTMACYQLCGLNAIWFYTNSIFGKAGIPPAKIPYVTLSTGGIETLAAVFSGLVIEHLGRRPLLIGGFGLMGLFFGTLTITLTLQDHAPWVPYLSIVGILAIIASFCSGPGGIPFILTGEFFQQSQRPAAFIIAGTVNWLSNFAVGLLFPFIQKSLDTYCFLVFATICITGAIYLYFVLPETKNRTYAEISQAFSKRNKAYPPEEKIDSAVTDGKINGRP
1. Preparation of Human GLUT9 Expression Plasmid
Human GLUT9S coding region (NM_001001290.1) was amplified by PCR method using PrimeSTAR MAX DNA Polymerase (Takara Bio). The obtained PCR product was subjected to agarose gel electrophoresis, and the desired size of PCR product was purified by QIAquick Gel Extraction Kit (QIAGEN). Next, pEBMulti-Bsd vector (Wako Pure Chemical Industries, Ltd.) was subjected to digestion using restriction enzymes SalI and EcoR V, and linked to the PCR product containing GLUT9S by In-Fusion reaction using In-Fusion HD Cloning Kit (Takara Bio). XL10-Gold Competent Cells (Agilent Technologies) were transformed in In-Fusion reaction solution, and the obtained transfectants were cultured with shaking overnight in LB medium to which Blasticidin S HCl (Thermo Fisher Scientific) was added. Human GLUT9 expression plasmid DNA was prepared from the collected transfectants using EndoFree Plasmid Kit (Takara Bio).
2. Establish of Human GLUT9 Stably Expressing Cell
HEK293T cells (American Type Culture Collection, DS Pharma Biomedical) were seeded in a 6 well plate at 1×10^6 cells/well. Next day, human GLUT9 expression plasmid was transfected by using Lipofectamine 3000 Reagent (Thermo Fisher Scientific) as follows. Lipofectamine 3000 Reagent (5 μL) was diluted with Opti-MEM (125 μL, Thermo Fisher Scientific). Separately, plasmid DNA (2.5 μg) was diluted with Opti-MEM (125 μL), and P3000 Reagent (5 μL) was added thereto. The obtained solution was mixed with the previously obtained diluted solution, and the mixture was left stand at room temperature for 5 min, and added to the cells. Next day, the transfected cells were diluted and reseeded in a 6 well plate at 4×10^5 cells/well, and drug selection was performed in the presence of 30 μg/mL of Blasticidin S HCl, and thereby, Blasticidin-resistant human GLUT9 stably expressing cell line was established. Mock cells were prepared by introducing pEBMulti-Bsd vector into HEK293T cells in a similar manner.
3. Preparation of Uricase/Hyper Expression Plasmid
Uricase/Hyper expression plasmid was prepared by linking the coding regions of Aspergillus Flavus-derived uricase gene and pHyPer-Cyto vector (Evrogen) HyPer gene to the pEBMulti-Hyg vector (Wako Pure Chemical Industries, Ltd.) and then introducing it. The preparation method was performed by reference to Gout and Nucleic Acid Metabolism 2013, 37(2), 93-101, and seven repeated linker sequence of glycine-glycine-glycine-serine was prepared herein.
4. Preparation of Human GLUT9-Uricase/Hyper Coexpressing Cell
Human GLUT9 stably expressing cells were seeded at 3.6×10^7 cells per 225 cm^2 flask. Next day, Uricase/Hyper expression plasmid was transfected by using Lipofectamine 3000 Reagent as follows. Lipofectamine 3000 Reagent (40 μL) was diluted with Opti-MEM (750 μL). Separately, plasmid DNA (20 μg) was diluted with Opti-MEM (750 μL), and P3000 Reagent (40 μL) was added thereto. The obtained solution was mixed with the previously obtained diluted solution, and the mixture was left stand at room temperature for 5 min, and added to the cells. Next day, transfected cells were collected to prepare human GLUT9-Uricase/Hyper coexpressing cells.
5. Evaluation of GLUT9 Inhibitory Activity
Uricase/Hyper transiently-transfected human GLUT9 stably expressing cells or mock cells (blank) were seeded in a 96 well plate (Corning) at 1.6×10^5 cells/well, and cultured overnight at 37° C., 5% CO2. D-MEM/high glucose (Wako Pure Chemical Industries, Ltd.) containing 10% Fetal Bovine Serum (Lifetechnology) and 100 units/ml penicillin/100 μg/ml streptomycin (GIBCO) was used as a medium.
In the case of `CCCCc1cnc(-c2ccc(O)cc2)c(-c2ccc(C(=O)O)cc2)n1` [Example 33], the inhibition at 10 µM stood at 28%.

Take `CCCCc1cnc(-c2ccc(C(=O)N(C)C)cc2)c(-c2ccc(C(=O)O)cc2)n1` [Example 22]: the inhibition at 10 µM turned out to be 9%.

For the compound `CCCCc1cnc(-c2ccc(OC)c(C(=O)O)c2)c(-c2ccc(C(=O)O)cc2)n1` [Example 15], the inhibition at 10 µM turned out to be 5%.

The experiment is the same for the next values; noted with them: final 300 μM uric acid, 6 min, human GLUT9 stably expressing HEK293T cells, read-out: humans GLUT9 inhibitory activity (IC50 value (μM)).
Consider `CCOCCc1cnc(-c2ccc(OC)cc2)c(-c2ccc(C(=O)O)c(Cl)c2)c1` [Example 138], for which the IC50 came to 0.499 µM.

In the case of `CCOCCCc1cnc(-c2ccc(OC)cc2)c(-c2ccc(C(=O)O)cc2)c1` [Example 77], the half-inhibitory concentration (IC50) amounted to 0.0585 µM.

In the case of `CCCCc1cnc(-c2ccc(OC)c(C(F)(F)F)c2)c(-c2ccc(C(=O)O)cc2)n1` [Example 19], the IC50 was 3.07 µM.

As to `CCCCc1cnc(-c2ccc(OC)cc2)c(-c2cc(C)c(C(=O)O)c(C)c2)n1` [Example 110], the IC50 worked out at 0.265 µM.

With `COc1ccc(-c2ncc(CCc3ccccc3)cc2-c2ccc(C(=O)O)cc2)cc1` [Example 105], the IC50 stood at 0.453 µM.

In the case of `CCCCc1cnc(-c2ccc(COC)cc2)c(-c2ccc(C(=O)O)cc2)n1` [Example 86], the 50% inhibitory concentration (IC50) worked out at 1.82 µM.

For `COc1ccc(-c2ncc(CCCCO)cc2-c2ccc(C(=O)O)cc2)cc1` [Example 51], the IC50 was determined as 0.962 µM.

On to `CCOCCc1cnc(-c2ccc(OC)cc2)c(-c2ccc(C(=O)O)cc2)c1` [Example 73], for which the IC50 worked out at 0.104 µM.

Take `CCCCc1cnc(-c2cc(F)c(OC)c(F)c2)c(-c2ccc(C(=O)O)cc2)n1` [Example 21]: the IC50 is 0.0607 µM.

With `COCCCc1cnc(-c2cc(F)c(OC)c(F)c2)c(-c2ccc(C(=O)O)c(Cl)c2)n1` [Example 121], the IC50 amounted to 0.501 µM.

With `COCCCCc1cnc(-c2cc(F)c(OC)c(F)c2)c(-c2ccc(CCC(=O)O)cc2)n1` [Example 148], the concentration for half-maximal inhibition (IC50) amounted to 0.0807 µM.

On to `CCCCc1cnc(-c2ccc(OC)cc2)c(-c2ccc(CC(=O)O)c(F)c2)n1` [Example 72], for which the IC50 stood at 0.526 µM.

For the compound `CCCCc1cnc(-c2ccc(C(F)(F)F)c(C(F)(F)F)c2)c(-c2ccc(C(=O)O)cc2)n1` [Example 28], the IC50 turned out to be 4.25 µM.

Turning to `CCCCc1cnc(-c2ccc(OC)cc2)c(-c2ccc(CCC(=O)O)c(F)c2)n1` [Example 93], the concentration for half-maximal inhibition (IC50) is 0.184 µM.

As to `COc1c(F)cc(-c2ncc(CC(C)C)cc2-c2ccc(C(=O)O)cc2)cc1F` [Example 99], the IC50 is 0.0514 µM.

Consider `CCCCc1cnc(-c2ccc(OC)cc2)c(-c2ccc(CC(=O)O)cc2)n1` [Example 38], for which the IC50 worked out at 0.865 µM.

In the case of `CCOCCc1cnc(-c2cc(F)c(OC)c(F)c2)c(-c2ccc(C(=O)O)c(C)c2)c1` [Example 141], the IC50 was determined as 0.0639 µM.

Turning to `CCOCCc1cnc(-c2ccc(OC)cc2)c(-c2ccc(CCC(=O)O)cc2)c1` [Example 139], the IC50 is 0.167 µM.

`CCCCc1cnc(-c2ccc(F)cc2)c(-c2ccc(C(=O)O)cc2)n1` [Example 10]: the IC50 turned out to be 1.78 µM.

With `COCCCc1cnc(-c2ccc(OC)cc2)c(-c2ccc(C(=O)O)c(Cl)c2)c1` [Example 120], the half-inhibitory concentration (IC50) turned out to be 0.539 µM.

`COc1ccc(-c2ncc(CCCO)cc2-c2ccc(C(=O)O)cc2)cc1` [Example 61]: the IC50 amounted to 5.59 µM.

Turning to `CCCCc1cnc(-c2ccc3c(c2)CCO3)c(-c2ccc(C(=O)O)cc2)n1` [Example 32], the IC50 was found to be 0.0888 µM.

Consider `COc1ccc(-c2ncc(CCCC3(O)CCC3)cc2-c2ccc(C(=O)O)cc2)cc1` [Example 44], for which the IC50 was found to be 1.65 µM.

For `CCCCc1cnc(-c2ccc(CC#N)cc2)c(-c2ccc(C(=O)O)cc2)n1` [Example 87], the IC50 was 1.79 µM.

Regarding `COCCCCc1cnc(-c2ccc(OC)cc2)c(-c2ccc(C(=O)O)c(Cl)c2)c1` [Example 125], the IC50 turned out to be 0.229 µM.

As for `COc1ccc(-c2ncc(CCCOCCO)cc2-c2ccc(C(=O)O)cc2)cc1` [Example 43], the IC50 is 7.13 µM.

Take `COCCCc1cnc(-c2ccc(OC)c(F)c2)c(-c2ccc(CCC(=O)O)cc2)c1` [Example 108]: the 50% inhibitory concentration (IC50) came to 0.0712 µM.

In the case of `CCCCc1cnc(-c2ccc(OC)cc2)c(-c2ccc(C(=O)O)cc2F)n1` [Example 5], the IC50 worked out at 0.0626 µM.

Regarding `CCCCc1cnc(-c2ccc(OC)c(C#N)c2)c(-c2ccc(C(=O)O)cc2)n1` [Example 17], the IC50 was 0.692 µM.

Consider `COc1ccc(-c2ncc(CCC(F)(F)F)cc2-c2ccc(C(=O)O)cc2)cc1` [Example 62], for which the IC50 was 0.127 µM.

For `COc1ccc(-c2ncc(CCC3CCCC3)cc2-c2ccc(C(=O)O)cc2)cc1` [Example 63], the IC50 is 0.659 µM.

For `CCCCc1cnc(-c2ccc(OC)cc2)c(-c2ccc(CCC(=O)O)cc2)n1` [Example 71], the IC50 came to 0.132 µM.

Consider `CCCCc1cnc(-c2ccc(OC)c(F)c2)c(-c2ccc(C(=O)O)cc2)n1` [Example 11], for which the IC50 was 0.0659 µM.

Consider `CCCCc1cnc(-c2ccc3c(c2)OCCO3)c(-c2ccc(C(=O)O)cc2)n1` [Example 50], for which the IC50 was found to be 0.133 µM.

Consider `CCc1cnc(-c2ccc(OC)cc2)c(-c2ccc(C(=O)O)cc2)c1` [Example 56], for which the IC50 was determined as 0.18 µM.

In the case of `CCCCc1cnc(-c2ccc(C3CC3)cc2)c(-c2ccc(C(=O)O)cc2)n1` [Example 34], the IC50 stood at 0.124 µM.

Consider `CCCOCc1cnc(-c2cc(F)c(OC)c(F)c2)c(-c2ccc(C(=O)O)c(C)c2)c1` [Example 147], for which the concentration for half-maximal inhibition (IC50) is 0.0868 µM.

Turning to `CCCCc1cnc(-c2ccc(OC)cc2)c(-c2ccc(C(=O)O)cc2)c1C` [Example 39], the IC50 stood at 1.45 µM.

Consider `CCOCCc1cnc(-c2cc(F)c(OC)c(F)c2)c(-c2ccc(C(=O)O)c(C)c2)n1` [Example 133], for which the IC50 worked out at 0.313 µM.

Consider `CCCCc1cnc(-c2ccc(OC)cc2)c(-c2ccc(C(=O)O)cc2)n1` [Example 1], for which the half-inhibitory concentration (IC50) was 0.0807 µM.

As for `COCCCCc1cnc(-c2cc(F)c(OC)c(F)c2)c(-c2ccc(C(=O)O)cc2)n1` [Example 35], the IC50 was 0.119 µM.

As for `CCCCc1cnc(-c2ccc(OC)cc2)c(-c2ccc(C(=O)O)c(CC)c2)n1` [Example 111], the IC50 is 0.0826 µM.

For `COc1ccc(-c2ncc3c(c2-c2ccc(C(=O)O)cc2)CCCC3)cc1` [Example 12], the IC50 was 5.06 µM.

As to `CCCCc1cnc(-c2ccc(OC)cc2)c(-c2ccc(OCC(=O)O)cc2)n1` [Example 70], the half-inhibitory concentration (IC50) came to 1.67 µM.

Regarding `CCCCc1cnc(-c2ccc(OC)cc2C)c(-c2ccc(C(=O)O)cc2)n1` [Example 2], the half-maximal inhibitory concentration (IC50) came to 0.946 µM.

`CCCCc1cnc(-c2ccc(C(C)C)cc2)c(-c2ccc(C(=O)O)cc2)n1` [Example 88]: the IC50 is 0.928 µM.

For `COc1c(F)cc(-c2ncc(CC(C)C)nc2-c2ccc(C(=O)O)cc2)cc1F` [Example 98], the IC50 was found to be 0.0605 µM.

On to `CCCCc1cnc(-c2ccc(OC)cc2)c(-c2cc(F)c(C(=O)O)c(F)c2)n1` [Example 69], for which the IC50 was determined as 0.856 µM.

Take `CCCCCCc1cnc(-c2ccc(OC)cc2)c(-c2ccc(C(=O)O)cc2)c1` [Example 100]: the 50% inhibitory concentration (IC50) was 0.082 µM.

On to `CCCCc1cnc(-c2ccc(OC)cc2)c(-c2ccc(C(=O)O)c(Cl)c2)n1` [Example 92], for which the half-inhibitory concentration (IC50) worked out at 0.181 µM.

As for `CCOCCc1cnc(-c2cc(F)c(OC)c(F)c2)c(-c2ccc(C(=O)O)cc2)n1` [Example 117], the IC50 turned out to be 0.543 µM.

As for `COCCOCCCc1cnc(-c2ccc(OC)cc2)c(-c2ccc(C(=O)O)cc2)c1` [Example 119], the IC50 was found to be 0.501 µM.

`CCCCc1cnc(-c2ccc(OC)cc2)c(-c2ccc(C(=O)O)c(O)c2)n1` [Example 91]: the IC50 was 0.247 µM.

By IC50 is commonly meant the concentration that inhibits the measured activity by half.
